Experimental data: ChEMBL document CHEMBL5331103, “Discovery of novel 2-hydroxyl-4-benzyloxybenzyl aniline derivatives as potential multifunctional agents for the treatment of Parkinson's disease” (Eur J Med Chem, 2023)

Assays:
[1] = target: T1, Amine oxidase [flavin-containing] B (Homo sapiens, UniProt P27338)
T1 sequence (P27338 whole entry): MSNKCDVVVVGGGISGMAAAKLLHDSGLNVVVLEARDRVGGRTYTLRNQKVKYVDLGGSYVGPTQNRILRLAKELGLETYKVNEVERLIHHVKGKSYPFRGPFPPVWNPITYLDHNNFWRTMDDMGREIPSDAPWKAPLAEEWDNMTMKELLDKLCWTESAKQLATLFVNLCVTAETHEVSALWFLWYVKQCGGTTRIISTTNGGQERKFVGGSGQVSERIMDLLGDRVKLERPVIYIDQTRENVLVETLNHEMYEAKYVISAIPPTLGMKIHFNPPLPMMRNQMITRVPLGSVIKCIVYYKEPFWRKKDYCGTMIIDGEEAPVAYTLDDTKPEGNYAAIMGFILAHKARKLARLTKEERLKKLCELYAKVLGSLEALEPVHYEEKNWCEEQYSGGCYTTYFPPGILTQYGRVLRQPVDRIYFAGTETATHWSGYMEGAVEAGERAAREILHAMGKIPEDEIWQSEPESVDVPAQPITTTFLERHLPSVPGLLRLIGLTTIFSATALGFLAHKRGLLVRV
Description: Inhibition of MAO-B (unknown origin) using kynuramine as substrate preincubated for 30 mins followed by substrate addition and measured after 30 mins by fluorescence based analysis

[2] = target: T2, Amine oxidase [flavin-containing] A (Homo sapiens, UniProt P21397); test: Inhibition of MAO-A (unknown origin) using kynuramine as substrate at 10 uM preincubated for 30 mins followed by substrate addition and measured after 30 mins by fluorescence based analysis relative to control; conditions: 0.5 h, time 60 min
T2 sequence (P21397 whole entry): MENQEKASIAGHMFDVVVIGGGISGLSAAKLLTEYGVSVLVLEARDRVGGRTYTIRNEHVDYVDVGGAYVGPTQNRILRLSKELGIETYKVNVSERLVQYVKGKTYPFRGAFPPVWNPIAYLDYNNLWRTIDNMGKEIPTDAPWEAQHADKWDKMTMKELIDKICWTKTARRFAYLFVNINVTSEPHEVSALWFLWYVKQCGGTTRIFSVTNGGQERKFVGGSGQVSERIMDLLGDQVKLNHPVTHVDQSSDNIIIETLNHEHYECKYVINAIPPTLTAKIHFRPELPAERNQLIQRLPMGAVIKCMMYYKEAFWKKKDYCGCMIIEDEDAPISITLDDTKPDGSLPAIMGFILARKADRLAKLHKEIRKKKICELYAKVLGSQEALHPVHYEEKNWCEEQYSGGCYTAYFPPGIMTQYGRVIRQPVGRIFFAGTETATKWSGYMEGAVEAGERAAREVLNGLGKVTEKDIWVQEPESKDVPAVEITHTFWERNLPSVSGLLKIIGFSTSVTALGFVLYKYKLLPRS

PC-12 [3] = test: Neuroprotective activity against H2O2-induced cell damage in rat PC-12 cells assessed as increase in cell viability at 10 uM preincubated for 2 hrs followed by H2O2 addition and measured after 24 hrs by MTT assay (reference value: 50.3%); type: functional; conditions: time 26 hrs
BV-2 [4] = test: Inhibition of LPS-induced ROS production in mouse BV-2 cells at 10 uM preincubated for 30 mins followed by LPS-stimulation and measured after 30 mins by DCFH-DA based fluorescence microplate reader analysis relative to control; type: functional; conditions: BV-2, 1 h, time 60 min
BV-2 [5] = test: Anti-neuroinflammatory activity in mouse BV-2 cells assessed as inhibition of LPS-induced NO production at 10 uM preincubated for 30 mins followed by LPS stimulation and measured after 24 hrs by Griess reagent based assay relative to control; type: functional; conditions: time 24.5 hrs
BV-2 [6] = test: Anti-neuroinflammatory activity in mouse BV-2 cells assessed as inhibition of LPS-induced TNF-alpha production at 10 uM preincubated for 30 mins followed by LPS stimulation and measured after 24 hrs by ELISA analysis relative to control; type: functional; conditions: time 24.5 hrs
BV-2 [7] = test: Cytotoxicity against mouse BV-2 cells assessed as reduction in cell viability upto 10 uM incubated for 30 mins by MTT assay; type: toxicity, cell-based; conditions: bv-2, 0.5 h
PC-12 [8] = test: Cytotoxicity against rat PC-12 cells assessed as reduction in cell viability at 10 uM incubated for 2 hrs by MTT assay; type: toxicity, cell-based; conditions: pc-12, 2 h

Oc1cc(OCc2ccccc2)ccc1CNc1ccccc1
IC50 [1]: 481 nM
inhibition at 10 µM [2]: 14.7%

Oc1ccc(/C=C/c2cc(O)cc(O)c2)cc1 [RESVERATROL]
Activity (PC-12 [3]): 63.6%
inhibition at 10 µM (BV-2 [4]): 56.7%
inhibition at 10 µM (BV-2 [5]): 51.8%
inhibition at 10 µM (BV-2 [6]): 52.2%
Activity (BV-2 [7]): Non-Toxic
Activity (PC-12 [8]): Non-Toxic

Oc1cc(OCc2cccc(Cl)c2)ccc1CNc1ccccc1
IC50 [1]: 249 nM
inhibition at 10 µM [2]: 20.5%

COc1cccc(COc2ccc(CNc3ccccc3)c(O)c2)c1
IC50 [1]: 343 nM
inhibition at 10 µM [2]: < 5%

Cc1ccc(COc2ccc(CNc3ccccc3)c(O)c2)cc1
IC50 [1]: 366 nM
inhibition at 10 µM [2]: 26.4%

Oc1cc(OCc2ccc(F)cc2)ccc1CNc1ccccc1F
IC50 [1]: 35 nM
inhibition at 10 µM [2]: 38.3%

O=[N+]([O-])c1ccc(COc2ccc(CNc3ccccc3)c(O)c2)cc1
IC50 [1]: 85 nM
inhibition at 10 µM [2]: 30.6%

Oc1cc(OCc2ccccc2Cl)ccc1CNc1ccccc1
IC50 [1]: 423 nM
inhibition at 10 µM [2]: 10.3%

Oc1cc(OCc2ccc(Cl)cc2)ccc1CNc1ccccc1
IC50 [1]: 58 nM
inhibition at 10 µM [2]: 51.2%
